Test results published in PubChem BioAssay AID1996.
≈ marks a conversion by molar mass, not a printed value.

Conditions: buffer; pH 7.4; 200.0 µM

SMILES | solubility kinetic [µg/mL]
Cc1cccc(C)c1OCC(=O)Nc1ccccc1N1CCCCC1 | < 0.4
Cc1cc(Nc2ccc(O)cc2)n2c(nc3ccccc32)c1C#N | 0.9 (≈ 2.86 µM)
CCN1C(=O)c2cccc3c(Cl)ccc(c23)C1=O | 1 (≈ 3.85 µM)
COc1ccc(CC(=O)O/N=C(\N)Cc2ccc([N+](=O)[O-])cc2)cc1 | 5.6 (≈ 16.3 µM)
O=[N+]([O-])/C=C1/CCCCCN1 | > 23.4
COc1ccccc1CNC(=O)CCNC(=O)c1ccco1 | > 45.3
CC1SCC(=O)N(CC(=O)NCCc2ccccc2)C1=O (stereo unspecified) | > 46
CCOC(=O)N1CCC(NS(=O)(=O)c2ccc(C)cc2)CC1 | > 49
O=C(CCC(=O)N1CCN(S(=O)(=O)c2ccc([N+](=O)[O-])cc2)CC1)N1CCOCC1 | > 66.1
Nc1cc(S(=O)(=O)Nc2ccccc2Cl)ccc1N1CCCCC1 | 13.2 (≈ 36.1 µM)
CC(C)NC(=O)NC(=O)CSc1ncccn1 | > 38.1
CC(=O)c1sccc1NC(=O)CC(C)(C)CC(=O)O | 32.5 (≈ 115 µM)
O=c1ccc(S(=O)(=O)N2CCCC2)c[nH]1 | > 34.2
COc1ccc(CCNC(=O)c2cccs2)cc1 | 38.7 (≈ 148 µM)
COc1ccc(CCNc2nc(C)c(C(C)=O)s2)cc1OC | 44.1 (≈ 138 µM)
O=C(c1ccc(-c2ccccc2)cc1)N1CCN(c2ccc(F)cc2)CC1 | 2.4 (≈ 6.66 µM)
COc1ccc(Cl)cc1-c1csc(N)n1 | 34.1 (≈ 142 µM)
Cc1ccc(C(=O)NC(=S)NCC2CCCO2)cc1[N+](=O)[O-] (stereo unspecified) | > 48.5
CCN(C(=O)CSc1ccccn1)C1CCCCC1 | > 41.8
Cc1cc(NC(=O)Nc2ccc(Cl)cc2)no1 | 1.4 (≈ 5.56 µM)
OC(CNCc1ccc2c(c1)OCO2)COc1ccc(F)cc1 (stereo unspecified) | > 47.9
COc1cc(C(=O)Nc2ccncc2)c([N+](=O)[O-])cc1OC | > 45.5
CC(C)=CCN1CCN(Cc2ccc(C)s2)CC1CCO (stereo unspecified) | 36.4 (≈ 118 µM)
COc1cccc(C(=O)O/N=C(\N)c2ccccn2)c1 | > 40.7
Cc1nc([N+](=O)[O-])c(Br)n1Cc1ccccc1 | > 44.4

SMILES | solubility kinetic [µg/mL]
OCc1cc(Br)ccc1OCc1nc2ccccc2s1 | < 0.8
CC(=O)Nc1cccc(-c2cc(-c3c(Cl)cccc3Cl)no2)c1 | 3.7 (≈ 10.7 µM)
CC1CCC(NC(=O)CSc2nncn2C)CC1 (stereo unspecified) | > 40.3
COC(=O)CNC(=O)C1CC(=O)N(CCc2ccc(F)cc2)C1 (stereo unspecified) | > 48.4
CC(C)NC(=O)/C(C#N)=C\c1ccc(N(C)C)o1 | > 37.1
O=c1c2ccccc2[nH]c2ccccc12 | 4.7 (≈ 24.1 µM)
Cc1ccc(S(=O)(=O)N2CC(=NN=C(N)N)C2)cc1 | > 42.2
CC(C)(C)OC(=O)N1CCCN(C(=O)Nc2cccc(Cl)c2)CC1 | 51.4 (≈ 145 µM)
CN(C)/C=N/NC(=O)C1Cc2c(ccc3ccccc23)O1 (stereo unspecified) | > 42.5
O=C(OCN1C(=O)c2ccccc2C1=O)c1cccc(OC(F)F)c1 | 0.9 (≈ 2.59 µM)
COc1cccc(OC)c1C(=O)Nc1ccccc1Sc1ccccc1 | 3.6 (≈ 9.85 µM)
COC(=O)c1ccccc1NC(=O)NCCc1ccccc1OC.Cl | 6.3
O=C(CCNC(=O)c1ccccc1)Nc1ccc(Cl)c(S(=O)(=O)N2CCCCC2)c1 | 29.8 (≈ 66.2 µM)
CC(C)(C)c1ccc(C(=O)N2CCCC2)s1 | > 35.6
O=C(Cc1ccccc1)Nc1ccc(Cl)cn1 | 21.5 (≈ 87.2 µM)
COc1ccccc1/C=C/c1nc2ccc(OC(C)=O)cc2c(=O)o1 | < 0.7
COc1ccccc1NC(=O)c1cccc2c(Br)cccc12 | < 0.8
Cc1ccc(C(=O)N2CCCCC2C(=O)O)cc1S(=O)(=O)N1CCCCC1 (stereo unspecified) | > 59.2
CN1CC(=O)N(CC(=O)Nc2cccc3ccccc23)C1=O | > 44.6
Cc1ccc(C(=O)NCCCNC(=O)c2ccc(C)nc2)cc1 | > 46.7
Cc1ccc(CSCc2ccc(C(=O)NC3CC3)o2)cc1 | > 45.2
Cc1cc(SCc2ccccc2C)nc(=O)[nH]1 | 30.7 (≈ 125 µM)
O=c1nc(Nc2ccccc2)oc2ccccc12 | 26.8 (≈ 112 µM)
CN(C)c1ccc(Nc2nc(N)c3ccccc3n2)cc1.Cl | > 47.4
CCN(C(=S)Nc1cccnc1)c1ccccc1 | 36.3 (≈ 141 µM)

SMILES | solubility kinetic [µg/mL]
COc1ccc(NC(=O)NC(=O)c2ccccc2)cc1 | 1.3 (≈ 4.81 µM)
CC(=O)N1CCN(C(=O)c2ccc(Cl)c(S(=O)(=O)N3CC(C)OC(C)C3)c2)CC1 (stereo unspecified) | > 66.6
O=C(N1CCN(CCO)CC1)N1c2ccccc2CCc2ccccc21 | 45.9 (≈ 131 µM)
CC1CN(S(=O)(=O)c2cccc(C(F)(F)F)c2)CC(C)O1 (stereo unspecified) | 43.6 (≈ 135 µM)
Cn1ccsc1=NC(=O)c1ccc(CS(C)(=O)=O)cc1 | > 46.6
CC(O)CNCCNCc1cccs1.Cl (stereo unspecified) | > 43.1
O=C(CSc1nnc(Nc2ccccc2F)s1)NCC1CCCO1 (stereo unspecified) | > 55.3
COc1cccc(CNC(=O)Cn2ccc([N+](=O)[O-])n2)c1 | > 43.5
CCN(C(=O)COC(=O)c1ccc2c(c1)OCO2)c1ccccc1 | > 49.1
COc1cc(=O)[nH]c(SC(C)C(=O)Nc2ccc3ccccc3c2)n1 (stereo unspecified) | 0.8 (≈ 2.25 µM)
COc1ccccc1Nc1ncnc2c1c(C)c(C)n2CCO | 15.4 (≈ 49.3 µM)
O=c1cc(C(F)(F)F)[nH]c2ccccc12 | > 32
COc1ccc(/C=C/C(=O)NC2CCCCC2C)cc1 (stereo unspecified) | 4 (≈ 14.6 µM)
CC(CCc1ccccc1)NC(=O)c1ccccc1Cl (stereo unspecified) | 41.6 (≈ 145 µM)
CCS(=O)(=O)c1ncc(Cl)c(C(=O)Nc2ccccc2OC)n1 | 0.3 (≈ 0.843 µM)
O=c1[nH]c(/C=C/c2ccccc2)c([N+](=O)[O-])c(=O)[nH]1 | > 38.9
Cc1ccc(S(=O)(=O)N2CCN(Cc3cccnc3)CC2)cc1 | > 49.7
O=C(NCCc1c[nH]c2ccccc12)C(=O)NCC1CCCO1 (stereo unspecified) | 9 (≈ 28.5 µM)
CCNc1oc(/C=C/c2ccc(OCC)cc2)nc1C#N | 1.7 (≈ 6 µM)
Cc1ccc(C)c(OCC(O)CNC2CCCC2)c1.Cl (stereo unspecified) | > 45
CCCCCCC(=O)c1c([O-])n(-c2ccc(OC)cc2)c(=O)[nH]c1=O.C[NH+](C)C | 44.5
Cc1cccc(NC(=S)N2CCN(S(C)(=O)=O)CC2)c1 | > 47
COC(=O)C1CCN(C(=O)CN2C(=O)NC3(CCC(C)CC3)C2=O)CC1 (stereo unspecified) | > 54.8
CCC(CC)C(=O)Nc1ccc(-c2cn3cccnc3n2)cc1 | 43.4 (≈ 141 µM)
Cc1ccc(S(=O)(=O)NCC(=O)OCC(=O)NCc2ccco2)cc1 | > 55

SMILES | solubility kinetic [µg/mL]
Cc1ccc(C)c(CSC2=NCCN2C(=O)c2cccs2)c1 | 1 (≈ 3.03 µM)
CC1(c2ccc(OCC(N)=O)cc2)NC(=O)NC1=O (stereo unspecified) | 35.7 (≈ 136 µM)
COc1cc(SC)ccc1C(=O)Nc1ncc(C)s1 | 1.4 (≈ 4.76 µM)
O=C(O)Cn1nc(-c2ccccc2)cc1-c1ccccc1 | > 41.7
O=[N+]([O-])c1cccc(CN2CCC(Cc3ccccc3)CC2)c1 | 17.3 (≈ 55.7 µM)
O=C(COC(=O)c1cc(S(=O)(=O)N2CCOCC2)ccc1F)NCCc1ccc(F)cc1 | > 70.3
CC1(C)Nc2ccccc2C(=O)N1c1ccc(Br)cc1 | 12.1 (≈ 36.5 µM)
CC1=CCC(C(=O)O)C(C(=O)Nc2cccnc2)C1 (stereo unspecified) | 33.3 (≈ 128 µM)
CCN(Cc1ccccc1)C(=O)COC(=O)c1cnc(C)cn1 | 38 (≈ 121 µM)
O=C1CC(=O)N(c2cccc(C(F)(F)F)c2)C(=O)N1 | > 40.8
O=C(Cn1nc(Cl)nc1Cl)c1ccccc1 | > 38.4
CCCCOC(=O)c1ccc(OC(=O)N2CCOCC2)cc1 | > 46.1
Cc1ccc2nc(-c3ccccn3)[nH]c2c1.Cl | > 36.9
Fc1ccc(-n2c(-c3ccco3)n[nH]c2=S)cc1 | > 39.2
Cc1cc(/C=C(\C#N)C(=O)O)c(C)n1CCC(C)C | > 39.1
Cc1cnc(NS(=O)(=O)c2ccc(Cl)cc2)c(Br)c1 | > 54.2
Nc1ccc(C(=O)CC(=O)Nc2ccc(Cl)cc2)cc1 | 14.3 (≈ 49.5 µM)
O=C(N/C(=C/c1ccccc1Cl)C(=O)N1CCOCC1)c1ccccc1 | > 55.6
CN(C)CCn1c(N)nc2ccccc21 | > 30.6
O=C(CCC(=O)N1CCCCCC1)NCc1ccc(F)cc1 | > 46
CCN(CC)c1ccc(NC(=S)Nc2ccc(F)cc2)cc1 | 9 (≈ 28.4 µM)
Cc1cc(C(=O)OCC(=O)NC2CC2)ccc1[N+](=O)[O-] | 15.5 (≈ 55.7 µM)
CC(=O)Nc1ccc(NC(=O)CCc2ccc(C)o2)cc1 | > 42.9
Cc1csc(NC(=O)c2ccc(S(=O)(=O)N3CCN(C)CC3)cc2)n1 | 54.5 (≈ 143 µM)
Cc1ccc2nc(-c3cccnc3)c(Nc3ccccc3C)n2c1 | 2.2 (≈ 7 µM)

SMILES | solubility kinetic [µg/mL]
CC(C)(C)C(=O)O/N=C(\N)COc1cccc(Cl)c1 | 25.4 (≈ 89.2 µM)
O=C(c1ccc(F)cc1)c1ccc(OCC(=O)N2CCOCC2)cc1 | > 51.5
CCOC(=O)c1cc2c(ccn2C)n1CC(=O)N1C(C)CCCC1C (stereo unspecified) | > 51.8
Cc1ccsc1C(=O)C1CCCN(Cc2ccc(O)cc2)C1 (stereo unspecified) | 36.8 (≈ 117 µM)
Cc1ccc(C(=O)NC(C)c2ccncc2)o1 (stereo unspecified) | > 34.5
COc1ccc(S(=O)(=O)N2CCCC2c2cccs2)cc1 (stereo unspecified) | 27.4 (≈ 84.7 µM)
O=C(c1ccc([N+](=O)[O-])cc1)N1CCCC1 | > 33
CCN(CC(=O)NC1CCS(=O)(=O)C1)S(=O)(=O)c1ccc(Br)cc1 (stereo unspecified) | > 65.9
CS(=O)(=O)c1ccc2nc(NC(=O)CN3CCOCC3)sc2c1 | 40.6 (≈ 114 µM)
CCc1cccc2c(C(=O)C(NCCOC)c3ccccc3)c[nH]c12 (stereo unspecified) | > 50.5
N#Cc1ccccc1OCC(=O)OCC(=O)NC1CCCCC1 | > 47.5
CC(NC(=O)COC(=O)c1cc(Cl)nc(Cl)c1)c1ccccc1 (stereo unspecified) | > 53
CCOC(=O)C1CCN(C(=O)COC(=O)CSc2ccccc2C)CC1 | > 56.9
COc1ccc(C(=O)N[C@H](C(=O)NCc2ccccc2)C(C)C)cc1 | 5.2 (≈ 15.3 µM)
Cc1oc(/N=C/c2ccccc2)c(C#N)c1C | 9.2 (≈ 41 µM)
CCCc1nnc(SCC(=O)Nc2nccs2)o1 | > 42.7
CCCCc1ccc(NC(=O)NCc2ccccn2)cc1 | 13.1 (≈ 46.2 µM)
Cc1ccc(C(=O)NC2CCN(C(=O)Nc3ccccc3)CC2)cc1 | 4.4 (≈ 13 µM)
O=C(CN1C(=O)NC2(CCCC2)C1=O)NCCc1ccccc1 | 44.8 (≈ 142 µM)
COCCN(C)Cc1nc(C(c2ccccc2)c2ccccc2)no1 | 37.7 (≈ 112 µM)
COCCNC(=S)N(c1ccccc1)C(C)C | > 37.9
